Data: patent US8188078B2 (Sanofi-Aventis, priority 2007, dated 2012)

What was measured:
RON = RON (Homo sapiens, UniProt Q04912); experiment: Test B: HTRF RON test in 96-well format; type: biochemical
Method in brief: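 RON 5 nM pre-incubated 30 min at RT with compound (0.17 nM–10 μM final, 3% DMSO) in MOPS 10 mM pH 7, DTT, Tween 20. Reaction with biotinylated poly-(GAT) 1 μg/ml, ATP 10 μM, MgCl2 5 mM, 30 min RT. Eu-anti-pTyr/streptavidin-XL665 HTRF, 665/620 ratio gives % inhibition, IC50.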

MET = molecular target: T1, MET (Homo sapiens, UniProt P08581); experiment: Test C: inhibition of the autophosphorylation of MET, ELISA technique (pppY1230, 1234, 1235), MKN45 cells; type: cell-based
T1 construct: endogenous in cells; host or cells: MKN45 cells
T1 sequence (P08581 25-1390): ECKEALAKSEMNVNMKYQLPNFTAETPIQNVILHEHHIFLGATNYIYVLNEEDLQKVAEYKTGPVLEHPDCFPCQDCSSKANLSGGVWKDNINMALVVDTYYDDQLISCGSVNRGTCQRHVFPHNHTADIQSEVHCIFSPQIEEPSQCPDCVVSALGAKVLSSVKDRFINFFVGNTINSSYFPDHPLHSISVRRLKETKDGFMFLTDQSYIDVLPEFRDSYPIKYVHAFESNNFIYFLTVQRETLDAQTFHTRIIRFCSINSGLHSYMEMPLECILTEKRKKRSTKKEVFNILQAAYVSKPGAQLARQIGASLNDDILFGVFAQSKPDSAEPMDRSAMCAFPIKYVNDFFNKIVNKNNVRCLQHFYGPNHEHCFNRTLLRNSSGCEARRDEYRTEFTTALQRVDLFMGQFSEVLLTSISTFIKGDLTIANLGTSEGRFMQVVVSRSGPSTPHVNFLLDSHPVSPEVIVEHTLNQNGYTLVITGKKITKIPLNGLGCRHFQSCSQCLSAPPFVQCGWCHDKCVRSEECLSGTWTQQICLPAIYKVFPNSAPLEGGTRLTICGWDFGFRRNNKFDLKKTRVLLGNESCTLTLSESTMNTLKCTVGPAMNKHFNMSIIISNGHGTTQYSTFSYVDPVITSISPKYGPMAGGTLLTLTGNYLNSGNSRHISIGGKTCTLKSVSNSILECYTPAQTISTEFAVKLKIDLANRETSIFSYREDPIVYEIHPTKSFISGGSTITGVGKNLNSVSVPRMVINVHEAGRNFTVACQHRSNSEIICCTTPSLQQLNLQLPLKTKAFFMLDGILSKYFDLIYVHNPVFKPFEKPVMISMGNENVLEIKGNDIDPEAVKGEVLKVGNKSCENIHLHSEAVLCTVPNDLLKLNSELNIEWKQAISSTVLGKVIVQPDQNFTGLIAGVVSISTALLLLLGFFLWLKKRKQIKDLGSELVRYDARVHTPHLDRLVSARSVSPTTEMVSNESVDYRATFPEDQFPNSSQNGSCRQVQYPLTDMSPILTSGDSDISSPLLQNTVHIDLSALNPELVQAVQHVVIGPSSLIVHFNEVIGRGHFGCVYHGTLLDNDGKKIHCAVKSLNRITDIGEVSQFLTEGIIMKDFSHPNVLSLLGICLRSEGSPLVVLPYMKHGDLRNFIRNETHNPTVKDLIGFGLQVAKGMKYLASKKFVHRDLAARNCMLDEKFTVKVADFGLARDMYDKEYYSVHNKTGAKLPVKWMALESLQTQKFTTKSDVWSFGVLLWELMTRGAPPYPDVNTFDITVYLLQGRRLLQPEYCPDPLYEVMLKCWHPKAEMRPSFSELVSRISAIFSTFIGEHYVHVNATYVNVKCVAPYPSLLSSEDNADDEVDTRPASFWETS
Method in brief: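 MKN45 cells adhered 24 h, then treated 1 h with compound at 6 concentrations in duplicate, final range 10000 to 30 nM. Lysates assayed by phospho-MET (pY1230/1234/1235) sandwich ELISA with HRP chromogen read at 450 nm.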

MKN45 cells = experiment: Test D: cellular proliferation by 14C-thymidine pulse, MKN45 cells; type: cell-based; details: cell line not stated (HCT116 or MKN45)
Method in brief: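 MKN45 cells (7500/well, RPMI + 10% foetal calf serum) treated with 10 concentrations, 10000 to 0.3 nM in 3-fold steps, duplicate. 14C-thymidine (0.1 μCi/well) added at 72 h; incorporation counted after 24 h pulse, 96 h total treatment.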

[1] = Homo sapiens, MKN-45, cellular proliferation by 14C-thymidine pulse
[2] = cellular proliferation by 14C-thymidine pulse

Sequence of RON (Q04912 25-1400): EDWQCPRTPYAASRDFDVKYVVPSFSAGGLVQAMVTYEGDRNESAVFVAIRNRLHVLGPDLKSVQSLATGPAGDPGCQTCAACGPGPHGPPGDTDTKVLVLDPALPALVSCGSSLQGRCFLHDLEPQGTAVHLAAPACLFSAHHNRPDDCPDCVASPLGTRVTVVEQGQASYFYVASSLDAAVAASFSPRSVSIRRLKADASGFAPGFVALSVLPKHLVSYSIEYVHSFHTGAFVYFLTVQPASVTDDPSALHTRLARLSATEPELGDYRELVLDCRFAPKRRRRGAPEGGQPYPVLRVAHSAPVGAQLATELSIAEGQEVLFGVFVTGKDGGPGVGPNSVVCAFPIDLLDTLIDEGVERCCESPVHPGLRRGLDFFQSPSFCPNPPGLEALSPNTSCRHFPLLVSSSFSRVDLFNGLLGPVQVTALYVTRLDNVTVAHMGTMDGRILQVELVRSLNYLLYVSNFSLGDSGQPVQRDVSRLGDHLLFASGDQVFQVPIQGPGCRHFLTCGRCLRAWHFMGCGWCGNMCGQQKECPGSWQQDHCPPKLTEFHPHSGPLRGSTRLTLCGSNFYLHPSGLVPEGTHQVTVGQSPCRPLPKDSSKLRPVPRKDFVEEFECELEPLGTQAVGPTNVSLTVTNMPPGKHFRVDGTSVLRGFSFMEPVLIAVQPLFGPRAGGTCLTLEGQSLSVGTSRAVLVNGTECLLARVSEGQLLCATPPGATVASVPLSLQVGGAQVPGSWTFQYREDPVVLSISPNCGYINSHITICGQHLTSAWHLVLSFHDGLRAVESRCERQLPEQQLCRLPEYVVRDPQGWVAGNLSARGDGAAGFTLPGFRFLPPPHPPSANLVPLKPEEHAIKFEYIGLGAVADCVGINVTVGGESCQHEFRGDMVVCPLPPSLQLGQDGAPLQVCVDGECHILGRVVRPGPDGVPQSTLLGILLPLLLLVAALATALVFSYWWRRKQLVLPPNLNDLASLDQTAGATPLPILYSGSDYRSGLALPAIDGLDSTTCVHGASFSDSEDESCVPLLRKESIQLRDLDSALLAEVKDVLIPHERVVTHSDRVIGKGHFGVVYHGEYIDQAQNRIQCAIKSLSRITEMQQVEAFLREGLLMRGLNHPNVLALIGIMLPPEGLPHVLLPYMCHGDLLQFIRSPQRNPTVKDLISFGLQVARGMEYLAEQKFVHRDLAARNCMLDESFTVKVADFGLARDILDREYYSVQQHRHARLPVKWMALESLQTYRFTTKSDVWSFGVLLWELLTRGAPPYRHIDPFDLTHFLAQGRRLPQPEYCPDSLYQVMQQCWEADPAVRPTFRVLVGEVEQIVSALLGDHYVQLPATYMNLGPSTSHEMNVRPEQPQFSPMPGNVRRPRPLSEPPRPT

IC50 (RON) [nM] | IC50 (MET) [nM] | IC50 (MKN45 cells; [1]) [nM] | IC50 (MKN45 cells; [2]) [nM] | Compound
500 to 10000 | 500 to 10000 | 500 to 10000 | – | CC(Oc1ccc2nc(NC(=O)NCCN3CCOCC3)sc2c1)c1c(F)cccc1F (stereo not drawn) [Example 18, 1-{6-[1-(2,6-difluorophenyl)ethoxy]-1,3-benzothiazol-2-yl}-3-(2-morpholin-4-ylethyl)urea]
< 500 | < 500 | 500 to 10000 | – | CC(Oc1cc2sc(NC(=O)NCCN3CCOCC3)nc2cc1F)c1c(Cl)ccc(F)c1Cl (stereo not drawn) [Example 31, 1-{6-[1-(2,6-dichloro-3-fluorophenyl)ethoxy]-5-fluoro-1,3-benzothiazol-2-yl}-3-(2-morpholin-4-ylethyl)urea]
500 to 10000 | 500 to 10000 | > 10000 | – | CC(Oc1ccc2nc(NC(=O)NCCN3CCN(Cc4ccccc4)CC3)sc2c1)c1c(Cl)ccc(F)c1Cl (stereo not drawn) [Example 35, 1-[2-(4-benzylpiperazin-1-yl)ethyl]-3-{6-[1-(2,6-dichloro-3-fluorophenyl)ethoxy]-1,3-benzothiazol-2-yl}urea]
500 to 10000 | < 500 | 500 to 10000 | – | CNCCCNC(=O)Nc1nc2cc(F)c(OC(C)c3c(Cl)ccc(F)c3Cl)cc2s1 (stereo not drawn) [Example 127, 1-{6-[1-(2,6-dichloro-3-fluorophenyl)ethoxy]-5-fluoro-1,3-benzothiazol-2-yl}-3-[3-(methylamino)propyl]urea]
500 to 10000 | < 500 | < 500 | – | CC(Oc1ccc2nc(NC(=O)NCCCN3CCCCC3)sc2c1)c1c(Cl)ccc(F)c1Cl (stereo not drawn) [Example 44, 1-{6-[1-(2,6-dichloro-3-fluorophenyl)ethoxy]-1,3-benzothiazol-2-yl}-3-(3-piperidin-1-ylpropyl)urea]
< 500 | < 500 | < 500 | – | CC(Oc1cc2sc(NC(=O)NCCN3CCN(C)CC3)nc2cc1F)c1c(F)ccc(Cl)c1Cl (single isomer, unassigned) [Example 116, 1-{6-[(1R*)-1-(2,3-dichloro-6-fluorophenyl)ethoxy]-5-fluoro-1,3-benzothiazol-2-yl}-3-[2-(4-methylpiperazin-1-yl)ethyl]urea]
500 to 10000 | < 500 | < 500 | – | CC(Oc1ccc2nc(NC(=O)NCCN3C(C)CCCC3C)sc2c1)c1c(Cl)ccc(F)c1Cl (stereo not drawn) [Example 56, 1-{6-[1-(2,6-dichloro-3-fluorophenyl)ethoxy]-1,3-benzothiazol-2-yl}-3-[2-(2,6-dimethylpiperidin-1-yl)ethyl]urea]
500 to 10000 | 500 to 10000 | > 10000 | – | O=C(NCCN1CCOCC1)Nc1nc2ccc(OC(c3c(Cl)cccc3Cl)C(F)(F)F)cc2s1 (stereo not drawn) [Example 64, 1-{6-[1-(2,6-dichlorophenyl)-2,2,2-trifluoroethoxy]-1,3-benzothiazol-2-yl}-3-(2-morpholin-4-ylethyl)urea]
500 to 10000 | 500 to 10000 | > 10000 | – | CC(Oc1ccc2nc(NC(=O)NCCN3CCOCC3)sc2c1)c1ccccc1C(F)(F)F (stereo not drawn) [Example 19, 1-(2-morpholin-4-ylethyl)-3-(6-{1-[2-(trifluoromethyl)phenyl]ethoxy}-1,3-benzothiazol-2-yl)urea]
500 to 10000 | 500 to 10000 | > 10000 | – | CC(Oc1ccc2nc(NC(=O)NCCCn3cccc3)sc2c1)c1c(Cl)ccc(F)c1Cl (stereo not drawn) [Example 40, 1-{6-[1-(2,6-dichloro-3-fluorophenyl)ethoxy]-1,3-benzothiazol-2-yl}-3-[3-(1H-pyrrol-1-yl)propyl]urea]

More lines, now with the values behind:

Compound | IC50 (RON) [nM] | IC50 (MET) [nM] | IC50 (MKN45 cells; [1]) [nM] | IC50 (MKN45 cells; [2]) [nM]
{6-[1-(2,6-dichloro-3-fluorophenyl)ethoxy]-5-fluoro-1,3-benzothiazol-2-yl}2-(pyrrolidin-1-yl)ethyl carbamate [Example 73] | 500 to 10000 | 500 to 10000 | – | 500 to 10000
CC(Oc1ccc2nc(NC(=O)NCCCN3CCCC3=O)sc2c1)c1c(Cl)ccc(F)c1Cl (stereo not drawn) [Example 45, 1-{6-[1-(2,6-dichloro-3-fluorophenyl)ethoxy]-1,3-benzothiazol-2-yl}-3-[3-(2-oxopyrrolidin-1-yl)propyl]urea] | 500 to 10000 | < 500 | 500 to 10000 | –
CCN1CCN(CCNC(=O)Nc2nc3cc(F)c(OC(C)c4c(Cl)ccc(F)c4Cl)cc3s2)CC1 (stereo not drawn) [Example 100, 1-{6-[1-(2,6-dichloro-3-fluorophenyl)ethoxy]-5-fluoro-1,3-benzothiazol-2-yl}-3-[2-(4-ethylpiperazin-1-yl)ethyl]urea] | < 500 | < 500 | < 500 | –
CC(Oc1ccc2nc(NC(=O)NCCN3CCCC3)sc2c1)c1c(F)ccc(Cl)c1Cl (single isomer, unassigned) [Example 121, 1-{6-[(1R*)-(2,3-dichloro-6-fluorophenyl)ethoxy]-1,3-benzothiazol-2-yl}-3-[2-(pyrrolidin-1-yl)ethyl]urea] | < 500 | < 500 | – | < 500
CC(Oc1ccc2nc(NC(=O)NCCN3CCOCC3)[nH]c2c1)c1c(Cl)cccc1Cl (stereo not drawn) [Example 2, 1-{6-[1-(2,6-dichlorophenyl)ethoxy]-1H-benzimidazol-2-yl}-3-(2-morpholin-4-ylethyl)urea] | 500 to 10000 | 500 to 10000 | 500 to 10000 | –
CC(Oc1ccc2nc(NC(=O)NCCN3CCN(C)CC3)sc2c1)c1c(F)ccc(Cl)c1Cl (single isomer, unassigned) [Example 109, 1-{6-[(1R*)-1-(2,3-dichloro-6-fluorophenyl)ethoxy]-1,3-benzothiazol-2-yl}-3-[2-(4-methylpiperazin-1-yl)ethyl]urea] | < 500 | < 500 | < 500 | –
CC(Oc1ccc2nc(NC(=O)NCCN3CCNCC3)sc2c1)c1c(Cl)ccc(F)c1Cl.O=C(O)C(F)(F)F (stereo not drawn) [Example 37, 1-{6-[1-(2,6-Dichloro-3-fluorophenyl)ethoxy]-1,3-benzothiazol-2-yl}-3-(2-piperazin-1-ylethyl)urea trifluoroacetate] | < 500 | < 500 | 500 to 10000 | –
CC(Oc1ccc2nc(NC(=O)NCCCN(C)C)sc2c1)c1c(Cl)ccc(F)c1Cl (stereo not drawn) [Example 43, 1-{6-[1-(2,6-dichloro-3-fluorophenyl)ethoxy]-1,3-benzothiazol-2-yl}-3-[3-(dimethylamino)propyl]urea] | < 500 | < 500 | > 10000 | –
CC(Oc1cc2sc(NC(=O)NCCO)nc2cc1F)c1c(Cl)ccc(F)c1Cl (single isomer, unassigned) [Example 99, 1-{6-[(1R*)-1-(2,6-dichloro-3-fluorophenyl)ethoxy]-5-fluoro-1,3-benzothiazol-2-yl}-3-(2-hydroxyethyl)urea] | < 500 | < 500 | < 500 | –
Cc1ccc(F)c(C(C)Oc2ccc3nc(NC(=O)NCCN4CCOCC4)sc3c2)c1Cl (stereo not drawn) [Example 28, 1-{6-[1-(2-chloro-6-fluoro-3-methylphenyl)ethoxy]-1,3-benzothiazol-2-yl}-3-(2-morpholin-4-ylethyl)urea] | 500 to 10000 | 500 to 10000 | > 10000 | –
CC(Oc1ccc2nc(NC(=O)NCCN3CCOCC3)sc2c1)c1c(Cl)ccc(Cl)c1Cl (stereo not drawn) [Example 124, 1-[2-(morpholin-4-yl)ethyl]-3-{6-[1-(2,3,6-trichlorophenyl)ethoxy]-1,3-benzothiazol-2-yl}urea] | 500 to 10000 | < 500 | 500 to 10000 | –
C[C@@H](Oc1cc2sc(NC(=O)NCCN3CCOCC3)nc2cc1F)c1c(Cl)ccc(F)c1Cl (single isomer, unassigned) [Example 32, 1-{6-[(1R)-(2,6-dichloro-3-fluorophenyl)ethoxy]-5-fluoro-1,3-benzothiazol-2-yl}-3-(2-morpholin-4-ylethyl)urea or 1-{6-[(1S)-(2,6-dichloro-3-fluorophenyl)ethoxy]-5-fluoro-1,3-benzothiazol-2-yl}-3-(2-morpholin-4-ylethyl)urea] | < 500 | < 500 | – | 500 to 10000
CC(Oc1ccc2nc(NC(=O)NCc3ccccn3)sc2c1)c1c(Cl)ccc(F)c1Cl (stereo not drawn) [Example 58, 1-{6-[1-(2,6-dichloro-3-fluorophenyl)ethoxy]-1,3-benzothiazol-2-yl}-3-(pyridin-2-ylmethyl)urea] | 500 to 10000 | 500 to 10000 | > 10000 | –
CC(Oc1cc2sc(NC(=O)NCCCN3CCCC3=O)nc2cc1F)c1c(F)ccc(Cl)c1Cl (stereo not drawn) [Example 114, 1-{6-[1-(2,3-dichloro-6-fluorophenyl)ethoxy]-5-fluoro-1,3-benzothiazol-2-yl}-3-[3-(2-oxopyrrolidin-1-yl)propyl]urea] | < 500 | < 500 | 500 to 10000 | –
CC(Oc1ccc2nc(NC(=O)NCc3cccnc3)sc2c1)c1c(Cl)ccc(F)c1Cl (stereo not drawn) [Example 59, 1-{6-[1-(2,6-dichloro-3-fluorophenyl)ethoxy]-1,3-benzothiazol-2-yl}-3-(pyridin-3-ylmethyl)urea] | 500 to 10000 | 500 to 10000 | 500 to 10000 | –
CC(Oc1cc2sc(NC(=O)NCCN3CCOCC3)nc2cc1F)c1c(F)ccc(Cl)c1Cl (single isomer, unassigned) [Example 113, 1-{6-[(1S*)-1-(2,3-dichloro-6-fluorophenyl)ethoxy]-5-fluoro-1,3-benzothiazol-2-yl}-3-[2-(morpholin-4-yl)ethyl]urea] | 500 to 10000 | < 500 | – | 500 to 10000
